Laboratory results from US12383628B2 (priority 2016, dated 2025).
“Also recorded” adds a separate entry of the source. Square brackets hold non-standard residues; d marks the D form. Ends that are not written are not given here. Peptide text beside a SMILES is read from it. Dmt = Cc1cc(O)cc(C)c1C[C@H](N)C(=O)O; β3hF = N[C@H](CC(=O)O)Cc1ccccc1

Assays:
[1] = Stability and degradability of biogels in human plasma (Example 8); format: in vitro ADME; details: 37° C.; for half-life at 14 μM: human, plasma, in solution
Protocol: After centrifugation at 14 000 rpm for 15 minutes, 100 μL supernatant was diluted with 100 μL milliQ water in the injection vial. Injection samples were vortexed for 5 seconds and were analyzed by HPLC. […] Calculations were performed using Microsoft® Office Professional 2010 Excel.

[2] = system: Male CD1 mice; assay: Radiant heat tail-flick test after s.c. administration, opioids in solution or co-formulated with hydrogelator; format: in vivo, mouse; details: for Time after administration at which no effect was detected / Time of peak antinociceptive action: s.c. bolus in solution (morphine 5 mg/kg; 14-MM 2.25 μg)
Protocol: Male CD1 mice (6-8 weeks old, body weight average 30 g) were obtained from Charles River (Sulzfeld, Germany). Mice were group-housed in a temperature controlled room with a 12 h light/dark cycle and with free access to food and water. All animal studies were conducted in accordance with ethical guidelines and animal welfare standards according to Austrian regulations for animal research, and were approved by the Committee of Animal Care of the Austrian Federal Ministry of Science and Research.
The radiant heat tail-flick test was used to assess antinociceptive effects of tested drugs after s.c. administration in mice using an UB 37360 Ugo Basile analgesiometer (Ugo Basile s.r.l., Varese, Italy) as described previously (A. Novoa et al., 2012). The reaction time required by the mouse to remove its tail due to the radiant heat was measured and defined as the tail-flick latency. A cut-off time of 10 s was also used in order to minimize tissue damage. The antinociceptive response was expressed as percent of Maximum Possible Effect (% MPE)=[(TL-BL)/(cut-off time-BL)]×100. Data were analyzed with ANOVA using Tukey's multiple comparison test, and graphically processed with the GraphPad Prism Software (GraphPad Software Inc., San Diego, CA).
(§1) Performed as described in Example 5.
as §1
The antinociceptive effect of co-formulations of a peptide hydrogelator as described herein with peptide-based analgesics was investigated in a model of thermal nociception using the tail-flick test in mice. […] The Tail-flick test was performed as described in Example 5.

[3] = human plasma; details: 37° C.; for fragment found / cleaved bond: up to 60 min
[4] = TEM / cryo-TEM fibre morphology of hydrogels; format: physicochemical; details: cryoTEM and negative staining, Example 9
Protocol: Formvar carbon-coated 400-mesh copper grids (Agar Scientific, Stansted, United Kingdom) were treated with plasma using an ELMO Glow discharge system to clean the grid surface and to render the carbon surface hydrophilic. Hydrogel samples were prepared 12 h in advance as described above. Small aliquots of sample (5 μL) were pipetted onto the carbon grids for adsorption. After 30 s, excess of sample was removed by using a Whatman 541 filter paper. The loaded grids were stained during 10 s with 1% uranyl formate after which the grids were air-dried. Samples were analysed using a JEOL JEM-1400 transmission electron microscope, operating at accelerating voltage of 120 kV. Images were recorded on a CMOS TemCam-F416 camera and accessory software of TVIPS.
200-mesh copper grids coated with perforated carbon film (Lacey carbon film: ProSci-Tech Old, Australia) were used and were glow discharged in nitrogen for 5 s immediately prior to use. Hydrogel samples were prepared 12 h in advance as described above. Small aliquots of sample (4 μL) were pipetted onto the carbon grids for adsorption. After 30 s, excess of sample was removed by using a Whatman 541 filter paper. The grid was then plunged into liquid ethane cooled by liquid nitrogen. Frozen grids were stored in liquid nitrogen until required. Samples were analysed using a Gatan 626 cryoholder and Tecnai 12 Transmission electron microscope, operating at accelerating voltage of 120 kV. Images were recorded using an FEI Eagle 4k×4k CCD camera.

[5] = in vitro; details: human, plasma
Protocol: Human plasma was obtained from the Belgian Red Cross (Vlaams-Brabant, Leuven). Prior to the stability test, selectivity, stability of the compound in the injection solvent, linearity, accuracy and precision of the method were investigated. Frozen (−20° C.) human plasma samples were thawed and thermostated to 37±2° C. Dissolution of the lyophilized peptide and consecutive dilutions were performed in water. The resulting aqueous solutions of each peptide individually was spiked in human plasma (10:90 v/v) with final plasma concentrations of 9 μM.
On every time point 100 μL spiked plasma was transferred to a 500 μL Eppendorf tube and a protein crash was performed using the corresponding precipitation solvent (4° C.). Suspensions were vortexed for 15 s and placed at 4° C. for 30 to 45 min. After centrifugation at 18 625 g for 20 min, 100 μL supernatant was diluted with 100 μL water in the injection vial.
Injection samples were vortexed for 5 sand placed in the autosampler. […] Concentrations were calculated by use of the calibration curve and transferred to a semi-log chart presenting the log concentrations as a function of time. The optimum curve was used to calculate the peptide half-life. Calculations were performed using Microsoft® Office Professional 2010 Excel.

[6] = system: L929 mouse fibroblasts; assay: Cytotoxicity, Live/Dead viability staining on hydrogels (Example 9); format: cell-based
Protocol: Hydrogels were prepared at 1, 2 or 3 mg/100 μL as duplicate in a 96-well ULA plate (Cat #CORN3474; Corning-Costar, 60 μL each well). The gels were photographed and pre-equilibrated before seeding with cells. For equilibration, gels were incubated at room temperature in 40 μL of L929 culture medium with double-strength Anti-Anti (Cat #15240062, GIBCO) for 2 h prior to seeding with cells. The equilibration medium was removed before cell seeding and retained to examine if the gels dissolved (even partially) or disintegrated into the culture medium. Next, […] mouse fibroblasts (ATCC) were seeded onto hydrogels at a concentration of 200,000 cells/ml in a volume of 50 μl. The cells were photographed immediately after seeding, observed by microscopy 2 h post-seeding and then observed and photographed at 24 h post-seeding. The cell culture medium consisted of MEM+GlutaMAX I (Cat #41090-036; GIBCO); 10% foetal bovine serum (Cat #12003C; SAFC, Sigma), 2× Anti-Anti (Cat #[…]) and 1× Non-Essential Amino Acids (Cat #41090-036; GIBCO).
Bright field microscopy was performed through use of a IX71 inverted microscope with NIS-Elements F3.0 imaging software (Olympus). The TE2000 Eclipse fluorescent microscope with NIS-Elements AR3.2 software (Nikon) was used for fluorescence imaging microscopy. Automated cell counting was performed on the NC-200 NucleoCounter using proprietary lysis and stabilising reagents and cassettes (ChemoMetec).
The viability and distribution of cells was assessed using a LIVE/DEAD Viability/Cytotoxicity Kit *for Mammalian cells* (Live-Dead Kit), (Cat #13224; Molecular Probes). Briefly, a working solution of live/dead solution was made as per manufacturer's instructions by adding 1.25 μl of Calcein AM (solution A) to 2.5 ml of pre-warmed PBS. The solution was thoroughly mixed by vortex and 2.5 μl of Ethidium homodimer (solution B), was added before vortexing a second time to mix. Excess medium was removed and the gels rinsed with 20 μl of warm PBS before a 40 μl of Live/Dead kit working solution was added to each well. The plate was incubated in a 37° C. cell culture incubator for 20 min before viewing using a fluorescent microscope. Green fluorescence was emitted from the cytoplasm of viable cells (excitation/emission ˜495 nm/˜515 nm) while dead cell nuclei fluoresced red (excitation/emission ˜495/˜635 nm) allowing a distinction to be made between viable and dead cells.

[7] = Peptide gelation (tilted tube / inverted vial test, minimum gelation concentration); format: physicochemical; details: for Minimum gelation concentration (w/v % in PBS): '/' = no gel
Protocol: The peptide gelation occurred by dissolving the TFA salt of the hexapeptide (2 mg) in 100 μL of PBS solution (pH 7.4) or physiological saline solution (0.9% NaCl).
Both peptides 2 and 4 (Table 1) gave a transparent gel in the same conditions (PBS 10 mM at pH 7.4 with a minimum gelation concentration of 24 mM; 2% w/v). To evaluate the mechanical properties of these hydrogels in a more quantitative manner, rheological experiments were performed. The viscoelastic properties of the peptide hydrogels were measured by dynamic rheometry at 37° C. This technique allowed to measure the storage modulus G′ (corresponding to the material's stiffness or rigidity), loss modulus G″ (corresponding to the viscous properties of the material) and loss factor tan (o) (ratio of G″ over G′). According to the Winter-Chambon criterion, a material reaches gelation in rheological terms if the phase angle o gets frequency-independent (F. Chambon et al., 1987 and H. Winter et al., 1987).
The peptide gelation occurred by dissolving the TFA salt of the peptide in 100 μL of PBS solution or physiological saline solution (0.9% NaCl) (pH 7.4).
The peptide gelation occurs by dissolving the TFA salt of the hydrogelator (1 or 2 mg) in 100 μL of aqueous media, PBS solution (pH 7.4) or physiological saline solution (0.9% NaCl). After successive vortexing and sonication, the gel is left to rest overnight at room temperature.
The hydrogelation was realized under physiologically relevant conditions, namely via the addition of phosphate-buffered saline (PBS) or sterile physiological saline solution (0.9% NaCl). The needed amount of hydrogelator was weighed in an Eppendorf® and solubilized by the addition of the above solutions. After vortex and sonication steps, the resulting solution was left at room temperature until gelation occurred. The gelation was qualitatively verified by the inverted vial test (if no gravitational flow was visible the gelation was considered successful). It can be noticed that all peptide hydrogelators depicted formed gels in PBS and saline solution at a concentration of 1 to 2% w/v.

[8] = biological target: MOR (Homo sapiens, UniProt P35372); assay: Binding tests (Ki) MOR
Sequence of MOR (P35372 whole entry): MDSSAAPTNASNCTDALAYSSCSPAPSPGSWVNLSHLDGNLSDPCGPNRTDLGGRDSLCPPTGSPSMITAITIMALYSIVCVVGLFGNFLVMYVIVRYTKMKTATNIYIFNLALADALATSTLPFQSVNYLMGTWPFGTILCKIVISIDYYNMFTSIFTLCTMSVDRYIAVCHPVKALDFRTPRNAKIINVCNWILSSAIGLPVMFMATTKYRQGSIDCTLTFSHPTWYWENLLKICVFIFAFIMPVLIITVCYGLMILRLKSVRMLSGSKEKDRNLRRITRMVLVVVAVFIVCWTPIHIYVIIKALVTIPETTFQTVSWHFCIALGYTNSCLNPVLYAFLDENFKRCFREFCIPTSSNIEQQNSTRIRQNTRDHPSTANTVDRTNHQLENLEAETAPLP

## Cc1cc(O)cc(C)c1C[C@H](N)C(=O)N[C@H](CCCCN)C(=O)N[C@@H](Cc1ccccc1)C(=O)N[C@@H](Cc1ccccc1)C(=O)N[C@@H](CCC(N)=O)C(=O)N[C@@H](Cc1ccccc1)C(=O)N[C@@H](CCC(N)=O)C(=O)N[C@@H](Cc1ccccc1)C(=O)N[C@@H](CCCCN)C(N)=O [CM-136, Dmt-OLy:s-Phe-Phe-Gln-Phe*-Gln-Phe*-Lys-NH2] (H-[Dmt][dK]FFQFQFK-NH2)
[1]
  half-life at 14 μM: ~11 min

## CO[C@@]12CCC(=O)[C@]3(C)Oc4c(O)ccc5c4[C@@]31CCN(C)[C@@H]2C5 [14-MM, 14-methoxymethopon]
[2]; s.c. bolus
  Dose required to produce 80% MPE, times lower than morphine: 66 times
[2]; s.c. bolus 2.25 μg, 30 min
  Antinociceptive effect at peak of action (% MPE): 80 % of MPE
[2]
  Time after administration at which no effect was detected: 4 h
  Time of peak antinociceptive action: 30 min

## CN1CC[C@]23c4c5ccc(O)c4O[C@H]2[C@@H](O)C=C[C@H]3[C@H]1C5 [morphine]
[2]
  Time after administration at which no effect was detected: 3 h
  Time of peak antinociceptive action: 30 min
[2]; s.c. bolus in solution, 5 mg/kg (0.15 mg per mouse)
  Antinociceptive effect (% MPE): 80 % MPE

## Dmt-OLy:s-Phe-Phe-Gln-Phe*-Gln-Phe*-Lys-NH2
[3]
  fragment found: heptapeptide, first_seen; also recorded: pentapeptide; also recorded: tripeptide

## KFQFEF-NH2 [peptide 18, H-Lys-Phe-Gln-Phe*-Glu-Phe-NH2]
[4]
  Fibre diameter: ~5 nm
[5]
  half-life at 9 μM: ~5 min
[6]
  Cytotoxicity in vitro: showed no cytotoxicity in vitro
[7]
  Minimum gelation concentration (w/v % in PBS): 2 w/v %

## Cc1cc(O)cc(C)c1C[C@H](N)C(=O)N1CCC[C@H]1C(=O)N[C@@H](Cc1ccccc1)C(=O)N[C@@H](Cc1ccccc1)C(=O)N[C@@H](CCC(=O)O)C(=O)N[C@@H](Cc1ccccc1)C(=O)N[C@@H](CCC(N)=O)C(=O)N[C@@H](Cc1ccccc1)C(=O)N[C@@H](CCCCN)C(N)=O [CM-54, Dmt-Pro-Phe-Phe-Glu-Phe*-Gln-Phe-Lys-NH2]
[8]
  Ki: 135 nM

## Dmt-DArg-Phe-Phe-Gln-Phe*-Gln-Phe-Lys-NH2
[3]
  cleaved bond: Gln-Phe, first_seen, 2.5 min; also recorded: Gln-Phe, 7.5 min
  fragment found: Dmt-DArg-Phe-OH, 60 min

## FQFQFK-NH2 [peptide 16, H-Phe-Gln-Phe*-Gln-Phe-Lys-NH2]
[4]
  Fibre diameter: ~5 nm
[5]
  half-life at 9 μM: ~3 min
[6]
  Cytotoxicity in vitro: showed no cytotoxicity in vitro
[7]; PBS or saline solution, Example 9
  Minimum gelation concentration (MGC): 1 % w/v
[7]
  Minimum gelation concentration (w/v % in PBS): 2 w/v %

## WEWQWK-NH2 [peptide 12, H-Trp-Glu-Trp*-Gln-Trp-Lys-NH2]
[4]
  Fibre diameter: ~5 nm
[5]
  half-life at 9 μM: ~21 min
[6]
  Cytotoxicity in vitro: showed no cytotoxicity in vitro
[7]
  Minimum gelation concentration (w/v % in PBS): 1 w/v %

## NCCCC[C@H](NC(=O)[C@H](Cc1ccccc1)NC(=O)[C@H](CCC(N)=O)NC(=O)[C@H](Cc1ccccc1)NC(=O)C[C@H](Cc1ccccc1)NC(=O)[C@H](CCC(=O)O)NC(=O)[C@@H](N)Cc1ccccc1)C(N)=O [peptide 27, H-Phe-Glu-13;;-homo-Phe-Phe-Gln-Phe-Lys-NH2] (H-FE[β3hF]FQFK-NH2)
[4]
  Fibre diameter: ~5 nm
[5]
  half-life at 9 μM: ~25 min
[6]
  Cytotoxicity in vitro: showed no cytotoxicity in vitro

## H-DLys-DPhe-DGln-DPhe*-DGlu-DPhe-NH2
[3]; up to 1500 min
  not cleaved: remains intact after 25 h of incubation

## Dmt-DLys-Phe-Phe-Glu-Phe*-Gln-Phe-Lys-NH2
[3]
  cleaved bond: Gln-Phe, first_seen, 2.5 min; also recorded: Glu-Phe, 7.5 min

## H-DPhe-DGlu-DPhe*-DGln-DPhe-DLys-NH2
[3]; up to 5700 min
  not cleaved: remained intact after 4 days of incubation

## Cc1cc(O)cc(C)c1C[C@H](N)C(=O)N[C@H](CCCNC(=N)N)C(=O)N[C@@H](Cc1ccccc1)C(=O)N[C@@H](Cc1ccccc1)C(=O)N[C@@H](CCC(N)=O)C(=O)N[C@H](CC(=O)N[C@@H](Cc1ccccc1)C(=O)N[C@@H](CCC(N)=O)C(=O)N[C@@H](Cc1ccccc1)C(=O)N[C@@H](CCCCN)C(N)=O)Cc1ccccc1 [CM-137, Dmt-OArg-Phe-Phe-Gln-J3;s-homo-Phe-Phe-Gln-Phe*-Lys-NH2] (H-[Dmt][dR]FFQ[β3hF]FQFK-NH2; N-terminus assumed)
[1]; human plasma
  Extent of degradation: the degradation stops after the cleavage of the first Gin
[1]
  half-life at 14 μM: ~123 min
